How the values were obtained:
HCC78 = experiment: Antiproliferative activity against human HCC78 cells assessed as reduction in cell viability incubated for 72 hrs by MTT assay; assay type: functional, cell-based; conditions: HCC78, 72 h
A549 [1] = experiment: Antiproliferative activity against human A549 cells harbouring […] mutant assessed as reduction in cell viability incubated for 72 hrs by MTT assay; assay type: functional, cell-based; conditions: A549, 72 h
A549 [2] = experiment: cells; conditions: Homo sapiens, A549, 72 h
HT-29 = experiment: cells; conditions: Homo sapiens, HT-29, 72 h
Description: Antiproliferative activity against human HT-29 cells assessed as reduction in cell viability incubated for 72 hrs by MTT assay

NCI-H2228 = experiment: Antiproliferative activity against human NCI-H2228 cells assessed as reduction in cell viability incubated for 72 hrs by MTT assay; assay type: functional, cell-based; conditions: NCI-H2228, 72 h
KARPAS-299 = experiment: Antiproliferative activity against human KARPAS299 cells assessed as reduction in cell viability incubated for 72 hrs by MTT assay; assay type: functional, cell-based; conditions: KARPAS-299, 72 h
[3] = target: Hepatocyte growth factor receptor (Homo sapiens, UniProt P08581); experiment: Inhibition of recombinant human N-terminal GST-tagged MET (956 to 1390 residues) cytoplasmic domain expressed in baculovirus expression system using Srctide as substrate incubated for 1 hr by mobility shift assay
Chain of Hepatocyte growth factor receptor (P08581 whole entry, the tested form may be a part): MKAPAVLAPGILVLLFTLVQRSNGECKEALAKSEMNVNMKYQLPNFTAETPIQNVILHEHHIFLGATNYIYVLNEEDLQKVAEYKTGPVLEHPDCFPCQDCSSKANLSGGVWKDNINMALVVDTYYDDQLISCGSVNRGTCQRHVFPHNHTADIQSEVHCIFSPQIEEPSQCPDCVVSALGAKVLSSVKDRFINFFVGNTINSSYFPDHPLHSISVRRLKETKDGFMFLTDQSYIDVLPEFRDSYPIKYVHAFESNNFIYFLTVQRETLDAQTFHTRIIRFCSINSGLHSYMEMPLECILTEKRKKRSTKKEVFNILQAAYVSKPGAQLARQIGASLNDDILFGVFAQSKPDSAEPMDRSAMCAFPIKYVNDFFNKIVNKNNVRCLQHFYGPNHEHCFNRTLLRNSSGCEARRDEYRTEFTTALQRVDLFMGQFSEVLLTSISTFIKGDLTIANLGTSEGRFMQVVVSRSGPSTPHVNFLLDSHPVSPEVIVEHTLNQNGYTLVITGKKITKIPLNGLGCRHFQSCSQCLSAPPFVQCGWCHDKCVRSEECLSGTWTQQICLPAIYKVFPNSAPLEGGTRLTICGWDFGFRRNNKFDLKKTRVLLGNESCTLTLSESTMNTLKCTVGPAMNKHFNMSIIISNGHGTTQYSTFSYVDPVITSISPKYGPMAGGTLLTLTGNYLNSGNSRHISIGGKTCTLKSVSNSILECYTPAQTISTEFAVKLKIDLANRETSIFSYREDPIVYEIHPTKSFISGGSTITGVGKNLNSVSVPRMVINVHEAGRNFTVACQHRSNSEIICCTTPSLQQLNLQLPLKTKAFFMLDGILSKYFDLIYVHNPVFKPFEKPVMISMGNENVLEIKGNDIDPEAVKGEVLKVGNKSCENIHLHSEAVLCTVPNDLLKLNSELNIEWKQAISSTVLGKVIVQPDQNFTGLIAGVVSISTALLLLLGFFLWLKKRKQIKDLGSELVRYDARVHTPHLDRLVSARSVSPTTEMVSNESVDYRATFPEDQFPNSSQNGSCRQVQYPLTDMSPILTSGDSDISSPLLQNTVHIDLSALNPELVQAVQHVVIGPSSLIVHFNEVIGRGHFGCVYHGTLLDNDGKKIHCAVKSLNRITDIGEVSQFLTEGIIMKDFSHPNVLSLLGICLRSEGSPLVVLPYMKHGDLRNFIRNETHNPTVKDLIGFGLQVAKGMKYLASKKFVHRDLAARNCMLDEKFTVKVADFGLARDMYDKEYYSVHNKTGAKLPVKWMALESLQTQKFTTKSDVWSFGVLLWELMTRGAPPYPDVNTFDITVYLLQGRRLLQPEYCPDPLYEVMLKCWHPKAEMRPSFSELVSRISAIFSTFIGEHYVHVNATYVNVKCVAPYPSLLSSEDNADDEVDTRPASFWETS

[4] = target: ALK tyrosine kinase receptor (Homo sapiens, UniProt Q9UM73); experiment: Inhibition of recombinant human N-terminal GST-tagged ALK (1058 to 1620 residues) cytoplasmic domain expressed in baculovirus expression system using srctide as substrate incubated for 1 hr by mobility shift assay
[5] = target: ALK tyrosine kinase receptor (Homo sapiens, UniProt Q9UM73, L1196M); experiment: Inhibition of recombinant human N-terminal GST-tagged ALK (1058 to 1620 residues) cytoplasmic domain L1196M mutant expressed in baculovirus expression system using srctide as substrate incubated for 1 hr by mobility shift assay
Chain of ALK tyrosine kinase receptor (Homo sapiens, UniProt Q9UM73, L1196M) (Q9UM73 19-1620 L1196M limits assumed): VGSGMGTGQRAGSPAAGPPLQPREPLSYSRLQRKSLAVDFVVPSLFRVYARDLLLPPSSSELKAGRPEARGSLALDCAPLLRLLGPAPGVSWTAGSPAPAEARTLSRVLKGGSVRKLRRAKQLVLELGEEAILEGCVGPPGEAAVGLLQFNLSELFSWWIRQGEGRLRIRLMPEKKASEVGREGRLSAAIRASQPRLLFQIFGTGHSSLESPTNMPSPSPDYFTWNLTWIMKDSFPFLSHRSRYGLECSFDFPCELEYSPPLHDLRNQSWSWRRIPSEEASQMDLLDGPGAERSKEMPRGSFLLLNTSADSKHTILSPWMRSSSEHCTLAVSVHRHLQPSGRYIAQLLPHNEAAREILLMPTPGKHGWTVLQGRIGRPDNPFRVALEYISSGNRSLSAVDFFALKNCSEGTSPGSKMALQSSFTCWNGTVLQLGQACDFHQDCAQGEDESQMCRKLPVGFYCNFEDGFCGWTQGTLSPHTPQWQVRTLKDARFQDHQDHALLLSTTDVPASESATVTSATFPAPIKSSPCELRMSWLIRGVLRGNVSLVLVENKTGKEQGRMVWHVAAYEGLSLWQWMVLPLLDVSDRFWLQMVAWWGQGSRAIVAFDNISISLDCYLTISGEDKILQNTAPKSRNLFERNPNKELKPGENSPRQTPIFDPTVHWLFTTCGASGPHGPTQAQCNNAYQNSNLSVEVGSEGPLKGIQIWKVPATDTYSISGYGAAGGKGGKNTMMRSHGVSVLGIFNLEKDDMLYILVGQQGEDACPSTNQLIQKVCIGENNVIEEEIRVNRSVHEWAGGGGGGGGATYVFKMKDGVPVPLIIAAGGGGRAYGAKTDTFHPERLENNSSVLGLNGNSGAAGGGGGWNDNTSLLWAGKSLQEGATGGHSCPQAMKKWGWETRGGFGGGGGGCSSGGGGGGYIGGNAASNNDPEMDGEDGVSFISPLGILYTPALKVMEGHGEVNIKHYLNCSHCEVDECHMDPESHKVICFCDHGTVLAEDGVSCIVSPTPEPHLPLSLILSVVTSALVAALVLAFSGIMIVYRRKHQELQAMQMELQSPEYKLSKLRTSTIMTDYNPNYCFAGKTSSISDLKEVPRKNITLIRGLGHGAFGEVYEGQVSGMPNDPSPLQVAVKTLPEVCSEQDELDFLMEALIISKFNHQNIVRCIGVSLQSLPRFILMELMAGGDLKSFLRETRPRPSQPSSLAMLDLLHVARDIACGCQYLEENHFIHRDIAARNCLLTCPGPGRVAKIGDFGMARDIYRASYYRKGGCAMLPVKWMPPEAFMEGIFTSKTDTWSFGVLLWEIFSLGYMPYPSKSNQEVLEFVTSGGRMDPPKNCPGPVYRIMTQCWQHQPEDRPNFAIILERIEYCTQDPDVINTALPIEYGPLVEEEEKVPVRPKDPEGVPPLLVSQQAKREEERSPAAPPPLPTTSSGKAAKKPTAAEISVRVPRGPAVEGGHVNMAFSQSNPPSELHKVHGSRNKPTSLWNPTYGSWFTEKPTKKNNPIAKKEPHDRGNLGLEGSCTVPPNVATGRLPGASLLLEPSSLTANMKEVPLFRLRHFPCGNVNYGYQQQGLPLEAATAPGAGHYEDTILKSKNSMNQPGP

[6] = target: Epidermal growth factor receptor (Homo sapiens, UniProt P00533)
Chain of Epidermal growth factor receptor (P00533 whole entry, the tested form may be a part): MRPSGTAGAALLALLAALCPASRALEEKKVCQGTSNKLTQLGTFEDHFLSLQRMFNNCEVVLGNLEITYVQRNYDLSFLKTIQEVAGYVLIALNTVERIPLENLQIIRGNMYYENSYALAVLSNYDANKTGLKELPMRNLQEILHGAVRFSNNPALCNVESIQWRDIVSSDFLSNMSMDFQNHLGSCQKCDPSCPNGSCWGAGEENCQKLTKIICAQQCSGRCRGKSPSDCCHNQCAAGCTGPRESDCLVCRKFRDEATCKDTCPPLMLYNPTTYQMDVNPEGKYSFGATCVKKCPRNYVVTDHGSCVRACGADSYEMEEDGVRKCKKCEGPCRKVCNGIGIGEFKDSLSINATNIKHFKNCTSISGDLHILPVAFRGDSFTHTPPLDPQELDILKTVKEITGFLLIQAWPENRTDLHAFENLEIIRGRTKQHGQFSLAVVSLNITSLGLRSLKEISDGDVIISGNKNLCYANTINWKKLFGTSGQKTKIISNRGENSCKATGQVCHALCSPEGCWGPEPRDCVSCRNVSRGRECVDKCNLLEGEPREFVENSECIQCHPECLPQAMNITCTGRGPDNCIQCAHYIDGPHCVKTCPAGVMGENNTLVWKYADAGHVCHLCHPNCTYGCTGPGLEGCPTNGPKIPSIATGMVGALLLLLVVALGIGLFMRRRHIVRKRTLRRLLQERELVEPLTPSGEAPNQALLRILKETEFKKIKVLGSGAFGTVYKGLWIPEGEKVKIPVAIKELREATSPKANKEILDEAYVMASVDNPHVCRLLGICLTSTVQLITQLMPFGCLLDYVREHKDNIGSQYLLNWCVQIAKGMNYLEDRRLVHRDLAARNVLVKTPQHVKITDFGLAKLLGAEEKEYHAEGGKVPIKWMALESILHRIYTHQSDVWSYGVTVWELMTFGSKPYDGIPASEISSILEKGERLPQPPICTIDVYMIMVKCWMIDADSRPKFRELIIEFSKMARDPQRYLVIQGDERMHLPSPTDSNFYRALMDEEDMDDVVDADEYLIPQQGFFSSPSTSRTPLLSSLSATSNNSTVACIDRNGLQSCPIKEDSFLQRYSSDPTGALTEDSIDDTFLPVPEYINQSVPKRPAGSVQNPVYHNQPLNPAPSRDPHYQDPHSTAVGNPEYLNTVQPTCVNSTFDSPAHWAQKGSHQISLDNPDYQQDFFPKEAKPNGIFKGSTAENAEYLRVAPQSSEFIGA
Description: Inhibition of recombinant human N-terminal GST-tagged EGFR (669 to 1210 residues) cytoplasmic domain expressed in baculovirus expression system using Srctide as substrate incubated for 1 hr by mobility shift assay

[7] = target: Proto-oncogene tyrosine-protein kinase ROS (Homo sapiens, UniProt P08922); experiment: Inhibition of recombinant human N-terminal GST-tagged ROS (1883 to 2347 residues) cytoplasmic domain expressed in baculovirus expression system using IRS1 as substrate incubated for 1 hr by mobility shift assay
[8] = target: ALK tyrosine kinase receptor (Homo sapiens, UniProt Q9UM73, G1202R); experiment: Inhibition of recombinant human N-terminal GST-tagged ALK (1058 to 1620 residues) cytoplasmic domain G1202R mutant using srctide as substrate incubated for 1 hr by mobility shift assay
Chain of ALK tyrosine kinase receptor (Homo sapiens, UniProt Q9UM73, G1202R) (Q9UM73 19-1620 G1202R limits assumed): as the sequence (Q9UM73 19-1620 L1196M limits assumed) above, with M1178L, G1184R counted along it

| Compound | IC50 (HCC78) [nM] | IC50 (A549 [1]) [nM] | IC50 (A549 [2]) [nM] | IC50 (HT-29) [nM] | IC50 (NCI-H2228) [nM] | IC50 (KARPAS-299) [nM] | IC50 [3] [nM] | IC50 [4] [nM] | IC50 [5] [nM] | IC50 [6] [nM] | IC50 [7] [nM] | IC50 [8] [nM] |
| --- | --- | --- | --- | --- | --- | --- | --- | --- | --- | --- | --- | --- |
| COc1cc(NC(=O)NN2CCOCC2)ccc1Nc1ncc(Cl)c(Nc2ccccc2NC(C)=O)n1 | 310 | 1490 | > 10000 | 2250 | 230 | 340 |  |  |  |  |  |  |
| COc1cc(NC(=O)NC2CC2)ccc1Nc1ncc(Cl)c(Nc2ccccc2NC(C)=O)n1 | 870 | 710 | > 10000 | > 10000 | 810 | 890 |  |  |  |  |  |  |
| Cc1cc(Nc2ncc(Cl)c(Nc3ccccc3S(=O)(=O)C(C)C)n2)c(OC(C)C)cc1C1CCNCC1 [CERITINIB] | 39 | 510 | 1430 | 1030 | 45 | 37 | 271 |  |  |  |  |  |
| COc1cc(N2CCCCC2=O)ccc1Nc1ncc(Cl)c(Nc2ccccc2NC(C)=O)n1 | 660 | 1070 | > 10000 | > 10000 | 530 | 310 |  |  |  |  |  |  |
| CCOC(=O)[C@@H]1CCCN(C(=O)Nc2ccc(Nc3ncc(Cl)c(Nc4ccccc4NC(C)=O)n3)c(OC)c2)C1 | 670 | 1550 | 2570 | > 10000 | 600 | 590 |  |  |  |  |  |  |
| COC(=O)C1=C(Nc2ccc(Nc3ncc(Cl)c(Nc4ccccc4NC(C)=O)n3)c(OC)c2)CCC1 | 870 | 1810 | > 10000 | > 10000 | 2940 | 4300 |  |  |  |  |  |  |
| COc1cc(NC(=O)N2CCC(C(=O)O)CC2)ccc1Nc1ncc(Cl)c(Nc2ccccc2NC(C)=O)n1 | 390 | 970 | > 10000 | 3610 | 1850 | 1080 |  |  |  |  |  |  |
| COc1cc(NC(=O)N2CCC2)ccc1Nc1ncc(Cl)c(Nc2ccccc2NC(C)=O)n1 | 560 | 1160 | 2450 | 6770 | 340 | 390 |  |  |  |  |  |  |
| COc1cc(NC2CCCC2)ccc1Nc1ncc(Cl)c(Nc2ccccc2NC(C)=O)n1 | 670 | 1020 | > 10000 | > 10000 | 970 | 1050 |  |  |  |  |  |  |
| COc1cc(NC(=O)NC2CCC(=O)CC2)ccc1Nc1ncc(Cl)c(Nc2ccccc2NC(C)=O)n1 | 67 | 190 | 1720 | > 10000 | 550 | 77 | 325 | 2.5 | 3.9 | > 1000 | 3.7 | 9.3 |
